The structures appear in SMILES notation.

One data set relates to rat brain homogenate. Nature of the data set: Inhibition of iron-induced lipid peroxidation (MDA quantification). The following applies: 100 uM; FeCl2 400 uM, 37 °C, 30 min. The format is biochemical. Here is the method:
The rat brain was homogenized in a Krebs buffer (15 mM HEPES, 10 mM glucose, 140 mM NaCl, 3.6 mM KCl, 1.5 mM CaCl2, 1.4 mM KH2PO4, 0.7 mM MgCl2, pH 7.4) and the supernatant separated by centrifugation at 12,000 rpm for 10 min. was used for further experiments. FeCl2 was added to a final concentration of 400 uM in the brain homogenate which was then allowed to stand at 37 °C for 30 min. for the facilitation of oxidation. Each of the test compounds was added at a concentration of 100 uM and vehicle was used as a control.
Iron facilitates the oxidation of the brain homogenate to produce malondialdehyde (MDA), a lipid peroxidation product. Thus, the lipid peroxidation was determined by MDA quantification. The inhibitory effect of the test compounds against the lipid peroxidation was evaluated by calculating MDA reduction rate of the test compounds compared with that of the control group.
Typically, the MDA quantification is achieved by reacting samples with 2-thiobarbituric acid (TBA) and measuring the absorbance at 530 nm. However, this method is unsuitable to treat samples on a large scale because of a boiling step. Thus, in this experiment, N-methyl-2-phenylindole was used instead of TBA. […] Bioxytech^R LPO-586 Kit was used for MDA quantification.

The test system of a further data set is RAW 264.7 cells. Put plainly: Inhibition of LPS-induced NO production (Griess reagent). The data set is classed as cell-based, murine. The following applies: Mus musculus, RAW264.7, 100 uM, 24 hours. How it is done:
Using RPMI1640 media supplemented with 10% fetal bovine serum (FBS), RAW 264.7 cells (obtained from American Type Culture Collection), a murine macrophage cell line, were cultured at 37 °C in a 5% CO2 incubator. The RAW264.7 cells were harvested and cell density was adjusted to 5x10^5/ml with a RPMI medium supplemented with 0.5% FBS and plated at 5x10^4 cells/well to 96-well plates, which were then cultured for 20 hr in a CO2 incubator. After removal of the media, the cells were pre-treated for 1 hour with fresh media containing 33 uM and 100 uM of test compounds. The test compounds were dissolved in DMSO and diluted to respective concentration in the media. In order to minimize DMSO effect on the nitric oxide formation by the RAW264.7 cells in the wells, the media were allowed to contain DMSO at a concentration of 0.1 % or less.
After completion of one hour pre-treatment, lipopolysaccharide (LPS, E. coli serotype 055:B5) was added to activate the cells, which were, then, maintained for 24 hours in a CO2 incubator. As a result of the activation of RAW264.7 cells with LPS, NO was formed. The NO released into the media was in a form of nitrite NO2^- and quantitatively measured using the Griess reagent. A control was treated only with vehicle instead of test compounds.
The inhibitory effects of the test compounds against NO production were determined as the reduction of NO quantity compared with that of the control group.
(In general: The Griess reaction detects nitrite, a stable product of nitric oxide.)

For data set [1], the system named is Rat aortic smooth muscle cells. Nature of the data set: Inhibition of proliferation of vascular smooth muscle cells ([3H]-thymidine incorporation into DNA). The format is cell-based. The conditions noted are these: [^3H]-thymidine into DNA, angiotensin II (10^-7M) stimulated = 100, 72 hr. Here is the method:
Inhibitory effects on cell proliferation was evaluated by measurement of incorporation of [^3H]-thymidine into DNA. Rat aortic smooth muscle cells were grown in 24 well plate for 3 days to near confluence in DMEM containing 10% FBS, then DMEM containing FBS was washed out. Cells were cultured again in DMEM without serum for 48 hr to be quiescent. […] During the last 4 hours of incubation, [^3H]-thymidine (1 uCi/ml) was added. […] The samples were filtered through glass microfiber filter (GF/B. Whatmann) under vacuum. After washing the filters 3 times with 2 ml of an aqueous solution of 5% TCA, the radioactivity incorporated into DNA was counted by Liquid Scintillation Counter (Packard, TRI-CARB, 2100TR), then calculated incorporation % of [^3H]-thymidine.

The nature of data set [2]: Acute oral toxicity test in rats. The conditions noted are these: rat, in vivo, single oral dose in 0.5% methyl cellulose, read-out: lethal dose (LD50) for oral administration. Summed up:
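Six-week-old SPF SD rats, two per group, received a single oral dose of 1 g/kg suspended in 0.5% methyl cellulose (10 ml/kg). Survivors at the end of observation underwent haematology, serum chemistry, necropsy and histopathology of vital organs with macroscopic lesions.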

The next data set concerns rat aorta. Put plainly: Vasodilation effects on isolated blood vessels of rats (methoxamine-constricted aortic rings). The format is cell-based. The conditions noted are these: isolated rat aorta constricted with methoxamine (3 uM); read-out: Vasodilation Activity (in Vitro, rat aorta) (IC50). An excerpt: Male Sprague-Dawly rats (350-450 g, obtained from the Experimental Animal Team of the Korea Research Institute of Chemical Technology) were knocked unconscious by hitting the occipital region, sacrificed by cervical dislocation, and underwent thoracotomy. After being quickly removed, the thoracic aorta was deprived of the adipose tissue and cut into aortic rings of 3 mm width. The aorta was lightly rubbed with a modified Krebs Henseleit buffer (Physiological Salt Solution, PSS) soaked cotton club to remove the inner epithelial layer therefrom. While being suspended in an organ bath containing a physiological buffer, the vascular tissue was allowed to equilibrate under a resting tension of 2 g and then, stand for 1 hour at 37 °C for stabilization with a supply of a carbogen consisting of 95% O2-5% CO2.
Thereafter, the vascular tissue was constricted with 10^-5 M phenylephrine and washed several times with PSS and this procedure was repeated again to ensure the stable reacivity of vascular smooth muscle to repetitive constriction/dilatation.
In addition, 3x10^-6 M methoxamine was used to induce an intensive constriction in the vascular smooth muscle. When the vasoconstriction induced by the methoxamine reached and maintained a maximum, test compounds and controls were cumulatively added to the organ baths in concentrations of 1, 3, 10 and 30 uM so as to induce vasodilatation. As for the controls, they were Cromakalim and BMS-180448 (the compounds of the chemical formula 2), both known to be the first generation KATP activator with potent vasodilatation and cardioprotection effects.
Following the addition of the drugs, the change in the maximal constriction induced by methoxamine was calculated to plot a concentration-dilation response curve. Through a linear regression analysis, IC50, the drug concentration at which the vascular tissue is 50% dilated, was obtained for each drug.

The subject of data set [3] is ischemic heart models of rats. Nature of the data set: Heart protective (anti-ischemic) activity in ischemic heart models of anesthetized rats. The format is in vivo. The conditions noted are these: 45 min occlusion, 90 min reperfusion. Here is the method: Male rats (350-450 g, obtained from the Experimental Animal Team of the Korea Research Institute of Chemical Technology) were anesthetized by the intraperitoneal injection of pentobarbital at a dose of 75 mg/kg. After trachetomy, the rats were rendered to respire artificially at a rate of 60/min with a stroke volume of 10 ml/kg. Cannulars were inserted into the fermoral vein and the fermoral artery and used for drug administration and blood pressure measurement, respectively.
In the ischemic myocardium damage models, the body temperature has an important influence on the results. To avoid the change in the body temperature, a body temperature measuring probe was inserted into the rectum of each rat and the body temperature was constantly kept at 37 °C with the aid of a homeothermic blanket control unit.
Afterwards, during testing, a continuous measurement was made of the mean arterial blood pressures and heart rates from the rats. For the measurement of the blood pressure, a pressure transducer, such as that manufactured by Grass Ins., MA, U.S.A., identified as Model Statham P23XL, was used. The heart rate was measured by a tachometer, such as that manufactured by Gould Inc., OH, U.S.A., identified as Biotachometer. In addition, all of the changes occurring were continuously recorded through the Gould 2000 chart recorder, manufactured by Gould Inc.
The left coronary artery was occluded according to the Selye H. method as follows. The rats underwent a left thoracotomy operation for partial opening of the chest and the right-side chest was pressurized by the middle finger of the left hand to push the heart out. Immediately after the left anterior descending coronary artery hereinafter referred to as (LAD) was carefully stitched using a suture needle with 5-0 silk ligature, the heart was then repositioned in the thoracic cavity while both ends of the ligature were situated outside. The opposite ligature ends were passed through a PE tube (PE100, 2.5 cm) and allowed to stand loose for 20 min for stabilization. Via the cannula inserted into the femoral vein, vehicles or drugs were administered into the rats which were rendered to stand for 30 min in order to sufficiently elicit the efficacies of the drugs. BMS-180448 was used as a control drug and the i.v.administration dose was 0.3 mg/kg for all test drugs of interest and the control drug.
Next, the PE tube which had the doubled strands of the ligature passed therethrough was pushed toward the heart and then, set upright by tightly pulling end regions of the ligature with a hemostatic pincette while pressing the coronary artery. The PE tube was allowed to stand for 45 min for the occlusion of the coronary artery, followed by the removal of the hemostatic pincette and then, by the reperfusion for 90 min.
After the reocclusion of the coronary artery in accordance with the above procedure, the rats were administered with 2 ml of a 1% Evans blue through an intravenous route. Subsequently, an excess of pentobarbital was intravenously injected to kill the rats, after which the heart was removed and then, deprived of the right ventricle and both atria. The left ventricle was cut horizontally to the heart apex into 5 or 6 slices which were weighed. From the surface of each slice, images were input with the aid of a Hi-scope into a computer installed with an image analyzing program (Image Pro Plus). From the images input into the computer, the area of the normal blood stream tissue region which appeared blue in a computer monitor and the area which appeared colorless were measured. The percentage of the colorless area to the total area of each slice was calculated and multiplied by the weight of each slice to determine the area at risk (AAR) of each slice. […]

Data set [4] has as its system ischemic heart models of beagle dogs. Put plainly: Heart protective (anti-ischemic) activity in ischemic heart models of anesthetized beagle dogs. The following applies: total dose 2 mg/kg infused i.v. over 40 min, 90 min occlusion, 5 h reperfusion. The data set is classed as in vivo. Here is the method: In order to determine whether the compounds of the formula 1 are protective for the ischemic hearts of larger animals, experiments determining the anti-ischemic effects of the compounds on beagle dogs were conducted as follows. The experiments on beagle dogs followed the method of Grover et al.' (G. J. Grover et al., J. Cardiovasc. Pharmacol. 25, 40 (1995)).
After being anesthetized by an intravenous injection of pentobarbital at a dose of 35 mg/kg, male beagle dogs (8-12 kg) were further infused with pentobarbital sodium at a dose of 3-4 mg/kg through the right cephalic vein throughout the experiments, so as to keep the anesthesia constant. […] The heart rate was measured by a tachometer, such as that manufactured by Gould Inc., OH, U.S.A., identified as Biotachometer. In addition, all of the changes occurring during the experiment were continuously recorded through the Gould 2000 chart recorder, manufactured by Gould Inc.
The fifth intercostal space was incised to open the thorax and the LAD was separated from its surrounding tissues. […] The LAD part upstream of the silk ligature was isolated from adjacent tissues and the blood flow was measured quantitatively. […] Using polygraph such as Grass Model 7E, the electrocardiogram was measured and read (Lead II). […]

As for `COC(OC)[C@]1(C)Oc2ccc([N+](=O)[O-])cc2[C@@H](NC(=NC#N)Nc2cccc(C(F)(F)F)c2)[C@@H]1O` [Example 7, (2R, 3S, 4R)-N''-cyano-N-(6-nitro-3,4-dihydro-3-hydroxy-2-methyl-2-dimethoxymethyl-2H-benzopyran-4-yl)-N'-(3-trifluoromethylphenyl)guanidine], the “% Inhibition” value with rat brain homogenate was 70%. For the same compound, in the data set with RAW 264.7 cells, 100 µM produced 88% inhibition. In data set [1] (4320 min), this compound yielded an Incorporation % of 37.8%. In addition, the LD50 in data set [2] was greater than 1000 mg/kg.
For `CC1(C)Oc2ccc(C#N)cc2[C@@H](NC(=NC#N)Nc2ccc(Cl)cc2)[C@@H]1O` [BMS-180448, reference compound], the IC50 in the data set with rat aorta is 1380 nM. In data set [3], the “Anti-ischemic Activity (in vivo, rats) (0.3 mg/kg i.v.) IZ/AAR (%)” value turned out to be 39.14%. Moreover, the “Anti-ischemic Activity (in vivo, dogs) (2 mg/kg/40 i.v.) min,i.v.) IZ/AAR (%)” value in data set [4] came out at 38.02%.
`COC(OC)[C@]1(C)Oc2ccc([N+](=O)[O-])cc2[C@H](NC(=NC#N)NCc2ccccc2)[C@H]1O` [Example 22, (2R, 3R, 4S)-N''-cyano-N (6-nitro-3,4-dihydro-3-hydroxy-2-methyl-2-dimethoxy methyl-2H-benzopyran-4-yl)-N'-benzylguanidine] displayed an Incorporation % in data set [1] of 64.0%. In addition, the LD50 in data set [2] was greater than 1000 mg/kg.

One may read the % Inhibition as the change of the read-out against control, counted positive when it falls. The term inhibition denotes the relative decrease from the control value, in per cent. One may read the IC50 as the concentration that gives 50% inhibition.

The record behind these values is patent publication EP1228058B1, “BENZOPYRANYL GUANIDINE DERIVATIVES, PROCESS FOR PREPARATION THEREOF, AND PHARMACEUTICAL COMPOSITIONS CONTAINING THEM” (Dongbu Hannong Chemical Co., Ltd., priority 1999, dated 2001).
